From article PMC12606608, “Identification of Novel Selective Transient Receptor Potential Vanilloid 4 (TRPV4) Agonists” (Current Pharmaceutical Design, 2025)
pEC50: −log10 of the molar value. Entries after “also recorded” stand apart in the source; their conditions may differ. Like-named read-outs stand apart in the source and are kept apart here.

Assays:
mouse TRPV4 = biological target: T1, mouse TRPV4 (Mus musculus, UniProt Q9EPK8); assay: Live-cell Fura-2 Ca2+ imaging in HEK293T cells transiently transfected with mouse TRPV4 (TRPV4-HEK293 cells); type: cell-based; conditions: for Ca2+ influx in the presence of GSK219: agonist 30 nM, pre- and co-applied 100 nM GSK219; for Hill coefficient: concentration-response curve; for Ca2+ influx (F340/F380): 30 nM, 2 min
T1 construct: expressed in transfected cells; host or cells: HEK293 (ATCC CRL-1573; elsewhere called HEK293T), transient, Lipofectamine 2000
T1 sequence (Q9EPK8 whole entry): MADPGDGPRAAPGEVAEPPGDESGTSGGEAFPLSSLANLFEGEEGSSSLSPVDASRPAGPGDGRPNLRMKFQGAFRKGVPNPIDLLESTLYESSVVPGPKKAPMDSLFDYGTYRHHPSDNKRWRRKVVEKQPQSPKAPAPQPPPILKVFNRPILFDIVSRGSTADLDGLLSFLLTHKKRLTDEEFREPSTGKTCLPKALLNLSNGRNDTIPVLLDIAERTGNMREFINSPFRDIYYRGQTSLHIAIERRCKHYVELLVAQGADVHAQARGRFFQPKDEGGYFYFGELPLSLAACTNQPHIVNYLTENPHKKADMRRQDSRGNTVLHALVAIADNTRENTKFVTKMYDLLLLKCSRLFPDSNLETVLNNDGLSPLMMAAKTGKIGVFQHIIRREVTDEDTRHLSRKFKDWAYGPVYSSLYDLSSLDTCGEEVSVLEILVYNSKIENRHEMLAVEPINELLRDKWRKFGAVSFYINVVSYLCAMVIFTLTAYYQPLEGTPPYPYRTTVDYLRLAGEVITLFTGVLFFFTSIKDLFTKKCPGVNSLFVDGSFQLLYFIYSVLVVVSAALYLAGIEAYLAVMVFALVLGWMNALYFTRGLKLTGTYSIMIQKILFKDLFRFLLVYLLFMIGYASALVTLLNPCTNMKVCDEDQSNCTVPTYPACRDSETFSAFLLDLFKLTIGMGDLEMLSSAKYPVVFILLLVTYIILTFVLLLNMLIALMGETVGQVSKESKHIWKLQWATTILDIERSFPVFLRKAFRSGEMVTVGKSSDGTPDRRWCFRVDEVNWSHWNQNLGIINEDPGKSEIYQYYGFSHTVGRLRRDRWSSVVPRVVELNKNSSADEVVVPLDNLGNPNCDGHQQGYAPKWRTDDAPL
Experimental: HEK293 cells were purchased from ATCC (ATCC CRL-1573; Manassas, VA, USA). As previously reported, the cells were tested for mycoplasma contamination before being cultured in the laboratory and grown as a monolayer in Dulbecco’s modified Eagle’s medium (DMEM) (Life Technologies, Carlsbad, CA, USA), supplemented with 10% fetal bovine serum (FBS; Life Technologies), 100 units/mL penicillin, and 100 μg/mL streptomycin. The cells were maintained in a humidified incubator at 37°C under 5% CO2. The cDNAs for mouse TRPV4 (mTRPV4) were transiently transfected into HEK293 cells for at least 24 hours using Lipofectamine 2000 (Invitrogen, Waltham, MA, USA).
(§1) Fura-2-based ratiometric measurements of intracellular calcium concentration ([Ca^2+]i) were performed as previously described. HEK293T cells transiently transfected with mTRPV4, primary keratinocytes, and macrophages were loaded with 4 μM Fura-2 AM (Life Technologies) in culture medium at 37°C for 60 minutes. The cells were then washed three times and incubated in Hanks’ balanced salt solution (HBSS) at room temperature for 30 minutes before use. Fluorescence intensities were measured at excitation wavelengths of 340 nm and 380 nm using an inverted Leica fluorescence microscope equipped with excitation filter wheels (340 nm, 360 nm, and 380 nm). The data were captured using LAS X imaging software (Leica Microsystems, Wetzlar, Germany). The Fura-2 ratios (F340/F380) were used to indicate changes in intracellular calcium ion concentrations ([Ca^2+]i) in response to stimulation. These values were derived from time-lapse imaging of each coverslip. The baseline of the cells was measured in the resting state, and once the value stabilized, the cells were treated with drugs. If no significant difference in the cell baseline was observed, cell viability was considered consistent. The activation threshold was defined as three standard deviations (SDs) above the mean, which corresponds to approximately 20% above the baseline.
GSK101 and the compounds were dissolved to create a concentration gradient (0.3 nM, 3 nM, 30 nM, 100 nM, 0.3 μM, 3 μM, 30 μM, 300 μM). Live-cell calcium imaging experiments were performed using fura-2-labeled TRPV4-HEK293 cells, and the fluorescence curves were recorded for each concentration of the compounds. The experiments were repeated three times, with the number of live cells in each field of view exceeding 100. The real-time fluorescence intensity curves from each experiment were statistically analyzed to calculate the cell response rate (the percentage of cells showing a fluorescence increase greater than 20% above baseline relative to the total number of cells). The concentration-response curves were fitted using GraphPad Prism (with the logarithm of concentration on the X-axis and the response rate on the Y-axis), and the Hill coefficient and EC50 values for each compound were automatically output.
To evaluate the efficacy of these synthetic analogues in vitro, we assessed their ability to activate TRPV4 using a Ca^2+ imaging assay. Because of the low expression of TRPV4 in native cells, we utilized a heterologous expression system and conducted Ca^2+ imaging in HEK293T cells that were transiently transfected with mouse TRPV4 (TRPV4-HEK293 cells).

C57BL/6J mice [1] = assay: Acute itch test (intradermal injection into the nape, scratches in 30 min); type: in vivo, mouse; conditions: 50 µL intradermal, wild-type mice
Experimental: (§2) Eighty adult male wild-type C57BL/6J mice and thirty TRPV4 knockout C57BL/6J mice (weighing 23-25g) were purchased from Gem Pharmatech (Nanjing, China) and maintained under a 12-hour light-dark cycle at 24°C. For all experiments, mice aged 8 to 12 weeks were utilized and acclimatized to the experimental room one week before the experiments. The mice were assigned to the experimental and control groups (5 mice/group) using a computer-generated table of random numbers (0-10), as well as the sequence of dosing and measurement. All behavioral tests were recorded from a side view, and the evaluations were carried out by observers who were unaware of the animals' treatment and genotype.
Under 1 to 2% isoflurane anesthesia, the mice were shaved on the nape of the neck 5 to 7 days prior to the experiment. For all itch behavior experiments, the mice were acclimated in red plastic chambers for two days before measurements, with acclimation sessions lasting 2 hours on the first day and 1.5 hours on the day of measurement. GSK101 (30 μM) and the test compounds (30 μM and 300 μM) were formulated in 0.9% saline and administered via intradermal injection to the nape of the neck at a volume of 50 μL. […] Acute chemical itch was evaluated by counting the number of scratches within the 30-minute recording period.

[2] = biological target: T2, TRPV4 in primary keratinocytes (Mus musculus, UniProt Q9EPK8); assay: Live-cell Ca2+ imaging in primary keratinocytes of neonatal TRPV4+/+ mice; type: cell-based; conditions: for [Ca2+]i response: 0.3 μM
T2 construct: endogenous in cells; host or cells: primary keratinocytes of neonatal (P0-P2) mice
T2 sequence (Q9EPK8 whole entry): as above
Experimental: Mice (P0-P2) were sacrificed and soaked in 10% povidone-iodine for 5 min. After being rinsed with 70% ethanol multiple times, the skin was removed and placed in a Petri dish containing PBS solution with 0.25% dispase II and incubated at 4°C overnight. The epidermis was then separated from the subcutaneous tissues, and keratinocytes were separated from the epidermis using a cell scraper and collected in 2 mL mouse keratinocyte media (Life Technologies). Dissociated cells were transferred to a 15% BSA column (1 mL) and centrifuged for 5 min at 1000 rpm. The cells were resuspended and seeded in […] Petri dishes containing 8-9 culture slides and placed in the culture incubator.
as §1, with “baseline. […]” for “baseline.”

[3] = biological target: T3, TRPV4 in peritoneal macrophages (Mus musculus, UniProt Q9EPK8); assay: Live-cell Ca2+ imaging in freshly dissociated peritoneal macrophages from TRPV4+/+ mice; type: cell-based; conditions: for [Ca2+]i response: 0.3 μM
T3 construct: endogenous in cells; host or cells: freshly dissociated murine peritoneal macrophages
T3 sequence (Q9EPK8 whole entry): as above
Experimental: Peritoneal macrophages were isolated as previously described. The mice were euthanized by cervical dislocation, and their abdomens were dissected in the middle. Six milliliters of cold phosphate-buffered saline (PBS) was instilled into the peritoneal cavity, followed by gentle massage and subsequent aspiration. The samples were centrifuged for 5 min at 4°C and 300 g, resuspended in 2 mL PBS, and filtered using […] cell strainers. After another centrifugation, the cell suspensions were seeded in […] Petri dishes containing 8-9 culture slides and placed in a culture incubator (37°C, 5% CO2).
as §1, with “baseline. […]” for “baseline.”

C57BL/6J mice [4] = assay: Mechanical pain test (von Frey, intraplantar injection); type: in vivo, mouse
Experimental: as §2
The mice were allowed to acclimate for 1.5 hours in red plastic enclosures on a metal mesh platform. The test compounds (30 μM) were formulated in 0.9% saline solution and administered via intraplantar injection with a volume of 10 μL. Calibrated von Frey filaments (0.02, 0.04, 0.07, 0.16, 0.4, 0.6, 1.0, 1.4, and 2.0 g) were applied perpendicularly to the plantar surfaces of the mice's hind paws for up to 2 seconds, with sufficient force to cause the filament to bend. Brisk withdrawal or flinching of the hind paw during or immediately after application was considered a positive response. […] The threshold force required to elicit paw withdrawal (50% mechanical threshold) was obtained using the up-down method.

[5] = dose-response of cell response rate, TRPV4-HEK293 cells, read-out: EC50
[6] = GSK219 1 μM pre- and co-applied

| Compound | Ca2+ influx in the presence of GSK219 (mouse TRPV4) | Hill coefficient (mouse TRPV4; TRPV4-HEK293 cells) | pEC50 (mouse TRPV4; [5]) | Ca2+ influx (F340/F380) (mouse TRPV4; TRPV4-HEK293 cells) | also measured |
| --- | --- | --- | --- | --- | --- |
| CC(C)C[C@H](NC(=O)c1cc2ccccc2s1)C(=O)N1CC2CCC(C1)N2C(=O)C(CO)NS(=O)(=O)c1ccc(Cl)cc1Cl (stereo partly drawn) [GM1004] | abolished | 1.1650 | 4.94 | – | – |
| CC(C)CC(NC(=O)c1cc2ccccc2s1)C(=O)N1CC2COCC(C1)N2C(=O)C(CO)NS(=O)(=O)c1ccc(Cl)cc1Cl (stereo not drawn) [GM1009] | abolished | 0.2998 | 4.07 | – | – |
| CC(C)C[C@H](NC(=O)c1cc2ccccc2s1)C(=O)N1CCN(C(=O)[C@H](CO)NS(=O)(=O)c2ccc(Cl)cc2Cl)CC1 [GSK101, N-((1S)-1-{[4-((2S)-2-{[(2,4-dichlorophenyl)sulfonyl]amino}-3-hydroxypropanoyl)-1-piperazinyl]carbonyl}-3-methylbutyl)-1-benzothiophene-2-carboxamide, reference compound] | abolished | 0.9273 | – | produced a Ca^2+ influx of different strengths | Number of scratching bouts within 30 minutes (average) (C57BL/6J mice [1]; 30 μM): 50; Number of scratches within 30 minutes (average) (C57BL/6J mice [1]; 300 µM): 88; pEC50 (mouse TRPV4): 7.86; [Ca2+]i response [2]: induced a significant TRPV4-mediated calcium response; [Ca2+]i response [3]: induced a significant TRPV4-mediated calcium response; Mechanical hyperalgesia (paw withdrawal) vs control group (C57BL/6J mice [4]; 30 µM, 10 µL intraplantar, wild-type mice): significantly induced mechanical hyperalgesia |
| O=C(NC1(c2ccccc2)CC1)c1c(CN2CCC(N3CCCCC3)CC2)c(-c2cccc(C(F)(F)F)c2)nc2cc(Br)ccc12 [GSK219, reference compound] | – | – | – | – | Inhibition of agonist-induced Ca2+ influx (mouse TRPV4; 100 nM GSK219 pre- and co-applied, TRPV4-HEK293 cells): abolished the action of GSK101 and compounds; Inhibition of agonist-elicited [Ca2+]i response [2, 6]: abolished the GSK101 action; Inhibition of agonist-elicited [Ca2+]i response [3, 6]: abolished the GSK101 action; Block of compound-induced pain-like behavior (C57BL/6J mice [4]; GSK219 intraperitoneally 30 minutes before plantar injection of compounds (30 µM)): blocked the pain-like behavior induced by GSK101 derivatives |
| CC(C)CC(NC(=O)c1cc2ccccc2s1)C(=O)N1CCN(C(=O)C(CO)NC(=O)c2ccc(Cl)cc2Cl)CC1 (stereo not drawn) [LM0024] | abolished | 0.7036 | 4.70 | – | – |
| CC(C)CC(NC(=O)c1cc2ccccc2s1)C(=O)N1CCN(C(=O)C(CO)NC(=O)c2ccc(Cl)cc2)CC1 (stereo not drawn) [LM0025] | – | – | – | no measurable current | – |
| CC(C)CC(NC(=O)c1cc2ccccc2s1)C(=O)N1CCCN(C(=O)C(CO)NS(=O)(=O)c2ccc(Cl)cc2Cl)CC1 (stereo not drawn) [LM0038] | abolished | 1.0280 | 6.78 | – | [Ca2+]i response [2]: induced a significant TRPV4-mediated calcium response; also recorded: weaker calcium influx than before; [Ca2+]i response [3]: induced a significant TRPV4-mediated calcium response; also recorded: signals with lower peaks than before |
| CC(C)CC(NC(=O)c1cc2ccccc2s1)C(=O)N1CC2(C1)CN(C(=O)C(CO)NS(=O)(=O)c1ccc(Cl)cc1)C2 (stereo not drawn) [LM6140] | – | – | – | no measurable current | – |
| CC(C)CC(NC(=O)c1cc2ccccc2s1)C(=O)N1CC2(C1)CN(C(=O)C(CO)NS(=O)(=O)c1cccc(Cl)c1)C2 (stereo not drawn) [LM6142] | – | – | – | no measurable current | – |
| CC(C)CC(NC(=O)c1cc2ccccc2s1)C(=O)N1CC2(C1)CN(C(=O)C(CO)NS(=O)(=O)c1ccccc1Cl)C2 (stereo not drawn) [LM6146] | abolished | 0.3283 | 4.10 | – | Immediate pain-inducing effect compared with GSK101 (C57BL/6J mice [4]; 30 µM intraplantar, 0 h, wild-type mice): slightly weaker than that of GSK101; Pain-inducing effect one hour post-injection compared with GSK101 (C57BL/6J mice [4]; 30 µM intraplantar, 1 h, wild-type mice): reached a level comparable to GSK101 |
| CC(C)CC(NC(=O)c1cc2ccccc2s1)C(=O)N1CC2(C1)CN(C(=O)C(CO)NS(=O)(=O)c1ccccc1)C2 (stereo not drawn) [LM6147] | abolished | 1.1150 | 5.22 | – | – |
| C[C@H](CCC(=O)O)C[C@H](C)C[C@H](C)C(=O)/C=C(\O)[C@H](C)C[C@H](C)C/C=C/[C@@H](C)[C@@H](O)[C@@H](C)[C@@H](O)C[C@@H]1CC[C@@](C)([C@H]2CC[C@@](C)([C@@H](C)O)O2)O1 [ionomycin, reference compound] | – | – | – | – | Intracellular calcium concentration (positive control) (mouse TRPV4; 1 μM ionomycin, TRPV4-HEK293 cells): rapidly and significantly increased intracellular calcium concentration |
